From patent publication US9663478B2, “Benzotriazine oxides as drugs targeting Mycobacterium tuberculosis” (priority 2011, dated 2017)
Converted amounts (≈) assume the structure as drawn. Like-named read-outs stand apart in the source and are kept apart here.

Experiments:
Mtb H37Rv [1] = experiment: TB MIC - SRI, resazurin-based microplate assay; format: cell-based, Mycobacterium tuberculosis; settings: Mycobacterium tuberculosis, H37RV
NRP Mtb H37Rv cells = experiment: Low-oxygen recovery assay (LORA) MIC; format: cell-based, Mycobacterium tuberculosis; settings: for MIC: Mycobacterium tuberculosis, H37RV, NRP Mtb, Tables 1-4 and text, read-out: LORA MIC - ITR
Mtb H37Rv [2] = experiment: TB MIC - ITR (UIC), Institute for Tuberculosis Research; format: cell-based, Mycobacterium tuberculosis; settings: for MIC: Mycobacterium tuberculosis, H37RV, Tables 1-4, read-out: TB MIC - ITR
[3] = Tables P1-P3, read-out: TB MIC - SRI
[4] = Tables 1-4 and text, read-out: TB MIC - SRI
[5] = read-out: TB MIC - SRI, Tables P1-P3
[6] = read-out: Activity against H37Rv, Table P4
[7] = Table P4, read-out: Activity against H37Rv

CCNc1n[n+]([O-])c2cc(Br)ccc2[n+]1[O-] [SRI-012464]
MIC (Mtb H37Rv [1]; [3]): 0.625 µg/mL (≈ 2.19 µM)

COc1ccc2c(c1)[n+]([O-])nc(N[C@@H]1C[C@H]3CC[C@@H]1C3)[n+]2[O-] [SRI-012462]
MIC (Mtb H37Rv [1]; [3]): 0.625 µg/mL (≈ 2.07 µM)

CN(C)c1n[n+]([O-])c2cc3c(cc2[n+]1[O-])CCC3 [SRI-012563]
MIC (Mtb H37Rv [1]; [3]): 0.625 µg/mL (≈ 2.54 µM)

[O-][n+]1nc(NC2CCCC2)[n+]([O-])c2ccc(Br)cc21 [SRI-012466]
MIC (Mtb H37Rv [1]; [3]): 0.156 µg/mL (≈ 0.48 µM)

CCNc1n[n+]([O-])c2cc(C)c(OC)cc2[n+]1[O-] [SRI-012468]
VERO Tox-SRI (Vero cells; African green monkey, 72 h): 100

[O-][n+]1nc(NC2CCCCC2)[n+]([O-])c2ccccc21 [Compound 8f, 3-(cyclohexylamino)benzo[e][1,2,4]triazine 1,4-dioxide]
MIC (NRP Mtb H37Rv cells): 0.75 µg/mL (≈ 2.88 µM)
MIC (Mtb H37Rv [1]; [4]): 2.5 µg/mL (≈ 9.6 µM)
MIC (Mtb H37Rv [2]): 3.8 µg/mL (≈ 14.6 µM)

CC(C)(C)Nc1n[n+]([O-])c2ccccc2[n+]1[O-] [SRI-003356]
MIC (Mtb H37Rv [1]; [5]): 1.25 µg/mL (≈ 5.34 µM)

[O-][n+]1nc(N2CCCC2)[n+]([O-])c2ccccc21 [Compound 17q, 3-(pyrrolidin-1-yl)benzo[e][1,2,4]triazine 1,4-dioxide]
Vero Tox CC50 (Vero cells; African green monkey, 72 h): 17 µg/mL
MIC (Mtb H37Rv [1]; Table 5, read-out: MIC, H37Rv): 0.31 µg/mL (≈ 1.33 µM)

CC(C)(C)C1CCC(Nc2n[n+]([O-])c3cc(F)ccc3[n+]2[O-])CC1 (centres unmarked) [SRI-012401]
MIC (Mtb H37Rv [1]; [3]): 0.312 µg/mL (≈ 0.933 µM)

[O-][n+]1nc(NC2CCC2)[n+]([O-])c2cc3c(cc21)CCCC3 [SRI-012497]
VERO Tox-SRI (Vero cells; African green monkey, 72 h): 50
MIC (Mtb H37Rv [1]; [6]): 1.25 µg/mL (≈ 4.37 µM)
MIC (Mtb H37Rv [1]; [5]): 1.25 µg/mL (≈ 4.37 µM)

CCNc1n[n+]([O-])c2cc(F)ccc2[n+]1[O-] [Compound 15aa, 3-(ethylamino)-7-fluorobenzo[e][1,2,4]triazine 1,4-dioxide]
MIC (NRP Mtb H37Rv cells): 0.75 µg/mL (≈ 3.35 µM)
MIC (Mtb H37Rv [1]; [4]): 0.62 µg/mL (≈ 2.77 µM)
MIC (Mtb H37Rv [2]): 0.35 µg/mL (≈ 1.56 µM)

[O-][n+]1nc(NC2CC2)[n+]([O-])c2ccccc21 [Compound 8b, 3-(cyclopropylamino)benzo[e][1,2,4]triazine 1,4-dioxide]
Vero Tox CC50 (Vero cells; African green monkey, 72 h): 21 µg/mL
MIC (Mtb H37Rv [1]; [4]): 2.5 µg/mL (≈ 11.5 µM)

CCNc1n[n+]([O-])c2cc3c(cc2[n+]1[O-])CCCC3 [SRI-012496]
VERO Tox-SRI (Vero cells; African green monkey, 72 h): 21.78
MIC (Mtb H37Rv [1]; [6]): 1.25 µg/mL (≈ 4.8 µM)
MIC (Mtb H37Rv [1]; [5]): 1.25 µg/mL (≈ 4.8 µM)

COc1cc2c(cc1C)[n+]([O-])nc(NC1CCC1)[n+]2[O-] [SRI-012469]
VERO Tox-SRI (Vero cells; African green monkey, 72 h): 50

Cc1cccc2c1[n+]([O-])c(N[C@@H]1C[C@H]3CC[C@@H]1C3)n[n+]2[O-] (racemic) [SRI-012461]
VERO Tox-SRI (Vero cells; African green monkey, 72 h): 2.3
MIC (Mtb H37Rv [1]; [3]): 0.156 µg/mL (≈ 0.545 µM)

CN(CCc1ccccc1)c1n[n+]([O-])c2cc3c(cc2[n+]1[O-])CCC3 [SRI-012565]
MIC (Mtb H37Rv [1]; [3]): 0.312 µg/mL (≈ 0.927 µM)

Nc1n[n+]([O-])c2cc3c(cc2[n+]1[O-])CCC3 [SRI-012398]
MIC (Mtb H37Rv [1]; [3]): 2.5 µg/mL (≈ 11.5 µM)

[O-][n+]1nc(NC2CC3CCC2C3)[n+]([O-])c2cc3c(cc21)CCCC3 (centres unmarked) [SRI-012498]
VERO Tox-SRI (Vero cells; African green monkey, 72 h): 50
MIC (Mtb H37Rv [1]; [6]): 1.25 µg/mL (≈ 3.83 µM)
MIC (Mtb H37Rv [1]; [5]): 1.25 µg/mL (≈ 3.83 µM)

[O-][n+]1nc(N2CCCCC2)[n+]([O-])c2cc3c(cc21)CCC3 [SRI-012562]
MIC (Mtb H37Rv [1]; [3]): 0.625 µg/mL (≈ 2.18 µM)

[O-][n+]1nc(N[C@@H]2C[C@H]3CC[C@@H]2C3)[n+]([O-])c2cc3c(cc21)CCC3 (racemic) [SRI-012404]
VERO Tox-SRI (Vero cells; African green monkey, 72 h): 50
MIC (Mtb H37Rv [1]; [3]): 1.25 µg/mL (≈ 4 µM)

O=S1(=O)CCN(c2n[n+]([O-])c3cc4c(cc3[n+]2[O-])CCC4)CC1 [SRI-012566]
MIC (Mtb H37Rv [1]; [7]): 5 µg/mL (≈ 14.9 µM)
MIC (Mtb H37Rv [1]; [3]): 5 µg/mL (≈ 14.9 µM)

[O-][n+]1nc(NC2CCC2)[n+]([O-])c2ccc(Br)cc21 [SRI-012465]
MIC (Mtb H37Rv [1]; [3]): 0.156 µg/mL (≈ 0.501 µM)

[O-][n+]1nc(N2CCCC2)[n+]([O-])c2cc3c(cc21)CCC3 [SRI-012530]
MIC (Mtb H37Rv [1]; [6]): 0.62 µg/mL (≈ 2.28 µM)
MIC (Mtb H37Rv [1]; [5]): 0.625 µg/mL (≈ 2.3 µM)

Nc1n[n+]([O-])c2cc(Br)ccc2[n+]1[O-] [SRI-012396]
MIC (Mtb H37Rv [1]; [3]): 1.25 µg/mL (≈ 4.86 µM)

CN(Cc1ccccc1)c1n[n+]([O-])c2cc3c(cc2[n+]1[O-])CCC3 [SRI-012564]
MIC (Mtb H37Rv [1]; [3]): 0.312 µg/mL (≈ 0.968 µM)

CS(=O)(=O)N1CCN(c2n[n+]([O-])c3cc4c(cc3[n+]2[O-])CCC4)CC1 [SRI-012568]
MIC (Mtb H37Rv [1]; [7]): 5 µg/mL (≈ 13.7 µM)
MIC (Mtb H37Rv [1]; [3]): 5 µg/mL (≈ 13.7 µM)

COc1cc2c(cc1C)[n+]([O-])nc(N[C@@H]1C[C@H]3CC[C@@H]1C3)[n+]2[O-] [SRI-012470]
VERO Tox-SRI (Vero cells; African green monkey, 72 h): 50

[O-][n+]1nc(N2CCCC2)[n+]([O-])c2ccccc21 [SRI-012495]
MIC (Mtb H37Rv [1]; [3]): 0.312 µg/mL (≈ 1.34 µM)
TB MIC - UIC (Mtb H37Rv [2]; Table P3): 17.4 µg/mL

CCNc1n[n+]([O-])c2cc(OC)ccc2[n+]1[O-] [Compound 15da, 3-(ethylamino)-7-methoxybenzo[e][1,2,4]triazine 1,4-dioxide]
MIC (NRP Mtb H37Rv cells): 16 µg/mL (≈ 67.7 µM)
MIC (Mtb H37Rv [1]; [4]): 2.5 µg/mL (≈ 10.6 µM)
MIC (Mtb H37Rv [2]): 15 µg/mL (≈ 63.5 µM)

CCNc1n[n+]([O-])c2cc(C)c(C)cc2[n+]1[O-] [SRI-012399]
MIC (Mtb H37Rv [1]; [3]): 2.5 µg/mL (≈ 10.7 µM)

CC1CCCCN1c1n[n+]([O-])c2cc3c(cc2[n+]1[O-])CCC3 (centres unmarked) [SRI-012567]
MIC (Mtb H37Rv [1]; [7]): 1.25 µg/mL (≈ 4.16 µM)
MIC (Mtb H37Rv [1]; [3]): 1.25 µg/mL (≈ 4.16 µM)

Cc1cccc2c1[n+]([O-])c(NC1CCCC1)n[n+]2[O-] [Compound 15ee, 3-(cyclopentylamino)-5-methylbenzo[e][1,2,4]triazine 1,4-dioxide]
MIC (NRP Mtb H37Rv cells): 0.27 µg/mL (≈ 1.04 µM)
MIC (Mtb H37Rv [1]; [4]): 0.31 µg/mL (≈ 1.19 µM)
MIC (Mtb H37Rv [2]): 0.43 µg/mL (≈ 1.65 µM)

[O-][n+]1nc(N[C@@H]2C[C@H]3CC[C@@H]2C3)[n+]([O-])c2ccc(Cl)cc21 (racemic) [SRI-012305]
LORA MIC (NRP Mtb H37Rv cells; Tables P1, P2, non-replicating M. tuberculosis): 0.2 µg/mL
MIC (Mtb H37Rv [1]; [3]): 0.156 µg/mL (≈ 0.509 µM)
TB MIC - UIC (Mtb H37Rv [2]; Tables P1, P2): < 0.125 µg/mL

Cc1cccc2c1[n+]([O-])c(N)n[n+]2[O-] [SRI-012397]
MIC (Mtb H37Rv [1]; [3]): 0.625 µg/mL (≈ 3.25 µM)

[O-][n+]1nc(NC2CCCCC2)[n+]([O-])c2ccc(F)cc21 [Compound 15af, 3-(cyclohexylamino)-7-fluorobenzo[e][1,2,4]triazine 1,4-dioxide]
MIC (NRP Mtb H37Rv cells): 0.47 µg/mL (≈ 1.69 µM)
MIC (Mtb H37Rv [1]; [4]): 0.62 µg/mL (≈ 2.23 µM)
MIC (Mtb H37Rv [2]): 0.68 µg/mL (≈ 2.44 µM)

[O-][n+]1nc(NC2CCC2)[n+]([O-])c2ccccc21 [Compound 8d, 3-(cyclobutylamino)benzo[e][1,2,4]triazine 1,4-dioxide]
MIC (NRP Mtb H37Rv cells): 0.84 µg/mL (≈ 3.62 µM)
MIC (Mtb H37Rv [1]; [4]): 1.2 µg/mL (≈ 5.17 µM)
MIC (Mtb H37Rv [2]): 0.94 µg/mL (≈ 4.05 µM)

[O-][n+]1nc(NC2CCCCCC2)[n+]([O-])c2ccccc21 [Compound 8g, 3-(cycloheptylamino)benzo[e][1,2,4]triazine 1,4-dioxide]
MIC (NRP Mtb H37Rv cells): 0.5 µg/mL (≈ 1.82 µM)
MIC (Mtb H37Rv [1]; [4]): 2.5 µg/mL (≈ 9.11 µM)
MIC (Mtb H37Rv [2]): 1.6 µg/mL (≈ 5.83 µM)

CC(C)CCC(C)Nc1n[n+]([O-])c2ccccc2[n+]1[O-] (centres unmarked) [Compound 8l, 3-((5-methylhexan-2-yl)amino)benzo[e][1,2,4]triazine 1,4-dioxide]
MIC (NRP Mtb H37Rv cells): 0.38 µg/mL (≈ 1.38 µM)
MIC (Mtb H37Rv [1]; [4]): 1.2 µg/mL (≈ 4.34 µM)
MIC (Mtb H37Rv [2]): 0.52 µg/mL (≈ 1.88 µM)

C[C@@H]1[C@H]2C[C@@H](C[C@H]1Nc1n[n+]([O-])c3cc(F)ccc3[n+]1[O-])C2(C)C (racemic) [SRI-012402]
MIC (Mtb H37Rv [1]; [3]): 0.312 µg/mL (≈ 0.939 µM)

[O-][n+]1nc(NC2CCC2)[n+]([O-])c2ccc(Cl)cc21 [Compound 15bd, 7-chloro-3-(cyclobutylamino)benzo[e][1,2,4]triazine 1,4-dioxide]
MIC (NRP Mtb H37Rv cells): < 0.12 µg/mL
MIC (Mtb H37Rv [1]; [4]): 0.15 µg/mL (≈ 0.562 µM)

[O-][n+]1nc(NC2CCCC2)[n+]([O-])c2ccc(F)cc21 [Compound 15ae, 3-(cyclopentylamino)-7-fluorobenzo[e][1,2,4]triazine 1,4-dioxide]
MIC (NRP Mtb H37Rv cells): 0.34 µg/mL (≈ 1.29 µM)
MIC (Mtb H37Rv [1]; [4]): 0.31 µg/mL (≈ 1.17 µM)
MIC (Mtb H37Rv [2]): 0.33 µg/mL (≈ 1.25 µM)

CCN(CC)c1n[n+]([O-])c2ccccc2[n+]1[O-] [SRI-009728]
MIC (Mtb H37Rv [1]; [3]): 0.312 µg/mL (≈ 1.33 µM)
TB MIC - UIC (Mtb H37Rv [2]; Table P3): 12.4 µg/mL

CC(C)(C)C1CCC(Nc2n[n+]([O-])c3ccccc3[n+]2[O-])CC1 (centres unmarked) [Compound 8j, 3-((4-(tert-butyl)cyclohexyl)amino)benzo[e][1,2,4]triazine 1,4-dioxide]
MIC (NRP Mtb H37Rv cells): < 0.12 µg/mL
MIC (Mtb H37Rv [1]; [4]): 0.62 µg/mL (≈ 1.96 µM)
MIC (Mtb H37Rv [2]): 0.22 µg/mL (≈ 0.695 µM)

CSc1c(C)[n+]([O-])c2ccccc2[n+]1[O-] [Cmpd 3]
Vero Tox CC50 (Vero cells): >16 µg/mL
